Source: patent US12234248B2, “Co-crystal compounds comprising lithium ions and isonicotinamide” (UNIVERSITY OF LIMERICK, priority 2017, dated 2025)
Where “and” joins values, the source holds several entries; their conditions need not be identical. Equal values may be shown once. Blank lines part the entries; values can stand above or below the molecule they belong to.

What was measured:
[1] = Stability of crystalline material under warm humid conditions (40° C., 75% relative humidity), PXRD before and after; format: physicochemical; conditions: stored at 40° C., 75% relative humidity; stable = retained crystal form for at least two weeks by PXRD
Experimental: The stability of these compounds under warm humid conditions was assessed as follows:
The crystalline material was stored at 40° C. in an atmosphere of 75% relative humidity.
Compounds were classed as stable if they retained their crystal form for at least two weeks as verified by examination of PXRD patterns collected before and after exposure to humidity.
It can be seen that the pattern obtained after 2 months at 75% relative humidity and 40° C. (upper trace) in this case is different.

[2] = Bioavailability in vivo in rats: lithium in plasma and brain by ICP-OES after oral administration
Experimental: Male Sprague-Dawley rats, weighing 240-290 g, were treated through gastric intubation with formulations of lithium and compared with lithium carbonate as a reference. For each formulation a group of 12 rats was treated. 4 mEq/kg of lithium were orally administered, after suspension in 2 mL of corn seeds oil (“Olio Cuore”).
Four intervals' post-administration time (2, 24, 48 and 72 hours) were considered and three rats for each of them, employing the protocol used by Zaworotko and coworkers (Smith et al., Mol. Pharmaceutics 2013, 10, 4728-4738). At each time interval blood samples were collected through intra-cardiac […], these were treated with 50 μL of sodium heparin and centrifuged for 10 min at 1600 rpm. Plasma samples of approximately […] each were thus obtained. The brain was explanted in toto with perfusion with phosphate buffered saline (PBS) in order to preserve it in a viable state. The plasma and brain samples were immediately frozen at a temperature of −80° C., after measuring the weight of the brains.
In order to determine the concentration of the lithium by means of the ICP-OES (Inductively Coupled Plasma Optical Emission Spectometry) analysis, plasma and brain samples were purified and mineralized, respectively to obtain solutions suitable for analysis.
A 0.5 mL aliquot was taken from each sample, to which were added equal amounts of MilliQ water and concentrated nitric acid, in order to bring the lithium ion in solution in the form of LiNO3 and to obtain the precipitation of the proteins. At this point, each sample was sonicated for 10 min in an ultrasonic bath and diluted to a volume of 5.0 mL.
All samples were subjected to centrifugation for a period of 40 min, at a rotational speed of 6000 rpm, to obtain complete plasma proteins/solution separation. At the end supernatant liquid containing lithium was diluted to a final volume of 15 mL by adding MilliQ water. The obtained solutions were stored at a temperature of 4° C. until analysis.
The purpose of this phase was to obtain liquid samples, suitable to ICP-OES analysis, containing lithium in solution, starting from the solid organic tissue of the brain. The mineralization process allows the complete degradation of organic substances until the total transformation into simple inorganic substances.
The first operation performed was that the drying of the fabric, obtained through the use of a digester open PerkinElmer SPB 100-12: each sample of brain has been inserted in special containers Digitube™ 100 mL and maintained at a temperature of 80° C. for 120 min.
The second step involved the mineralization true and proper brain: each sample were added to 10 mL of concentrated nitric acid and 1.0 mL of hydrogen peroxide, then the system was brought to a temperature of 120° C. for 120 min. until the complete mineralization. With this procedure you get the desired biological degradation of organic compounds and the consequent passage of lithium in solution. The solutions thus obtained were collected, brought to a final volume of 20 mL with MilliQ water and preserved at a temperature of 4° C. until time of analysis.
In order to obtain the determination of lithium ion concentrations in the samples previously prepared, optical emission spectrometry inductively coupled plasma ICP-OES was used (PerkinElmer Optima 8000 spectrometer).
The analysis was conducted at the fixed wavelength of lithium (λ=670.784 nm) and the intensity of the radiation emitted by each sample was measured and compared standard solutions.
Plasma and brain concentration data were processed using a non-compartmental approach using WinNonlin® software (Pharsight Corporation, USA) and Microsoft Excel XP (Microsoft Corporation, […]).

[3] = rat brain, 4 mEq/kg lithium oral, non-compartmental
[4] = rat plasma, 4 mEq/kg lithium oral, non-compartmental

Molecule: Li(adeninate)(water)3 [Compound 8]
Stable? [1]: No

Molecule: O=C(O)[C@@H]1CCCN1.O=C([O-])c1ccccc1O.[Li+] [Compound 14, [Li(salicylate)(L-proline)]n]
Stable? [1]: Yes

Molecule: O=C([O-])c1ccccc1.[Li+] [Compound 18, [Li (benzoate)]n]
Stable? [1]: Yes

Molecule: O=C(O)[C@@H]1CCCN1.O=C([O-])c1ccccc1.[Li+] [Compound 12, [Li(benzoate)(L-proline)]n]
Stable? [1]: Yes

Molecule: [(imidazolium)2^+(Li(hydrogen malate)2(water))^−] [Compound 33]
Stable? [1]: No

Molecule: O=C([O-])[O-].[Li+].[Li+] [Lithium carbonate, lithium carbonate, reference compound]
Cmax (brain) [2, 3]: 5.9900 µg/g
Tmax (brain) [2, 3]: 24 h
t½_Lambda_z (brain) ([2]; rat brain, 4 mEq/kg lithium oral, terminal phase): 13.7913 h
AUClast (brain) ([2]; rat brain, 4 mEq/kg lithium oral, time 0 to last quantifiable point): 232.4100 mg·h/g
Relative Brain BA (UL crystal forms, oral vs Li2CO3, oral) ([2]; rat brain, relative to lithium carbonate): 100.00%
Cmax (plasma) [2, 4]: 8413.3 ng/mL
Tmax (plasma) [2, 4]: 24 h
t½_Lambda_z (plasma) ([2]; rat plasma, 4 mEq/kg lithium oral, terminal phase): 7.3913 h
Relative Plasma BA (UL crystal forms, oral vs Li2CO3 oral) ([2]; rat plasma, relative to lithium carbonate): 100.00%
BRAIN CONC., Time(h) 2.00 ([2]; rat, 4 mEq/kg lithium oral, 2 h, lithium in brain, individual rats (three per time)): 0.60 µg/g and 1.43 µg/g and 0.68 µg/g
PLASMA CONC, Time(h) 2.00 ([2]; rat, 4 mEq/kg lithium oral, 2 h, lithium in plasma, individual rats (three per time)): 3020 ng/mL and 4820 ng/mL and 2720 ng/mL
BRAIN CONC., Time(h) 24.00 ([2]; rat, 4 mEq/kg lithium oral, 24 h, lithium in brain, individual rats (three per time)): 7.89 µg/g and 4.55 µg/g and 5.53 µg/g
PLASMA CONC, Time(h) 24.00 ([2]; rat, 4 mEq/kg lithium oral, 24 h, lithium in plasma, individual rats (three per time)): 8720 ng/mL and 5320 ng/mL and 11200 ng/mL
BRAIN CONC., Time(h) 48.00 ([2]; rat, 4 mEq/kg lithium oral, 48 h, lithium in brain, individual rats (three per time)): 3.35 µg/g and 2.89 µg/g and 3.43 µg/g
PLASMA CONC, Time(h) 48.00 ([2]; rat, 4 mEq/kg lithium oral, 48 h, lithium in plasma, individual rats (three per time)): 1290 ng/mL and 1180 ng/mL and 1600 ng/mL
BRAIN CONC., Time(h) 72.00 ([2]; rat, 4 mEq/kg lithium oral, 72 h, lithium in brain, individual rats (three per time)): 0.54 µg/g and 0.52 µg/g and 0.55 µg/g
PLASMA CONC, Time(h) 72.00 ([2]; rat, 4 mEq/kg lithium oral, 72 h, lithium in plasma, individual rats (three per time)): 140 ng/mL and 60 ng/mL and 80 ng/mL

The remaining lines, values ahead:

Stable? [1]: No
Molecule: CC1=CC(=O)[N-]S(=O)(=O)O1.O.[Li+] [Compound 23, [Li(acesulfame)(water)]n]

Stable? [1]: No
Molecule: CNCC(=O)O.O.O=C([O-])c1ccc(O)cc1.[Li+] [Compound 19, [Li(sarcosine)(4-hydroxybenzoate)(water)]n]

Stable? [1]: No
Molecule: NC(=O)c1ccncc1.NC(=O)c1ccncc1.NC(=O)c1ccncc1.NC(=O)c1ccncc1.NC(=O)c1ccncc1.NC(=O)c1ccncc1.NC(=O)c1ccncc1.NC(=O)c1ccncc1.O=C([O-])c1ccccc1O.O=C([O-])c1ccccc1O.O=C([O-])c1ccccc1O.O=C([O-])c1ccccc1O.[Li+].[Li+].[Li+].[Li+] [Compound 32, [Li2(salicylate)2(isonicotinamide)4]2]

Stable? [1]: No
Molecule: [Li(pyridoxinate)(water)]n [Compound 10]

Stable? [1]: No
Molecule: {[Li(malate) (water)2]•(imidazolium)}n [Compound 26]

Stable? [1]: No
Molecule: [Li(hydrogen maleate)(sarcosine)(water)] [Compound 27]

Stable? [1]: No
Molecule: CC(O)C(=O)[O-].CC(O)C(=O)[O-].NC(N)=O.O.O.[Li+].[Li+] (centres unmarked) [Compound 21, [(Li2(lactate)2(water)2)(urea)]n]
